The record followed here is a melting point compilation (Tetko et al.).

SMILES strings stand for the structures.

Broadly, the melting point is the temperature, or range, at which the solid turns liquid. `O=S(=O)(Cl)c1ccc(-c2ccccc2)s1`: the melting point is 85 to 87 °C. With `CC(C)(C)c1cc(N)c(O)c(C(C)(C)C)c1` the figure was 161 °C; with `CN(C)c1ccc(C=CC=O)cc1`, 140 °C. Compound `Clc1ccncc1` came in with a melting point of -43.5 °C.

As for `O=C(CCl)Nc1ccc(Br)cc1`, the melting point lay within 136 to 137 °C.

`Cn1c(S)nnc1-c1ccccc1` showed a melting point of 188 °C. In the case of `COC(=O)c1cc(C(C)=O)ccc1O`, the melting point was 60 to 61 °C. Consider `Cc1cc(Br)cc(C)c1N=C=S`, for which the melting point is 79.5 °C. As to `O=[N+]([O-])/C=C/c1cccc(/C=C/[N+](=O)[O-])c1`, the melting point was in the range of 203 to 204 °C.

The compound `CCOc1cccc(-c2ccccc2)c1` gave a melting point of 35 °C. For `CC(CO)NC(=O)OC(C)(C)C` (stereo not given) the value was 60 °C; for `CC12C=C(C=O)C(=O)C=C1CCC1C2C(O)CC2(C)C1CCC2(C)O` (stereo not given), 210 °C. For `COc1ccccc1OC(C)=O` the value was 31.5 °C; for `CCCCCCC1CCCCC1`, -43 °C; for `COC(=O)CC(C)CCC1C(C)(O)CCC2C(C)(C)CCCC21C` (stereo not given), 68.3 to 71.3 °C.

Regarding `NC(=S)c1ccccc1`, the melting point stood at 116 °C. With `CCNc1cc(O)ccc1C` the figure was 88 °C; with `Cn1ccc2cc(N=C=O)ccc21`, 42.5 to 44.5 °C; with `O=S(=O)(Cl)c1csc(C(F)(F)F)c1-c1ccccc1`, 86 to 87 °C. With `CC(=O)OC1C(O)C2=C(C(=O)C(OC(C)=O)C3(CC3C)C2=O)C2(C)CCC(=O)C(C)(C)C12` (stereo not given), the melting point is 201 °C. Regarding `CSC(S)=Nc1ccc(N)cc1`, the melting point lay within 188 to 190 °C. For `NC(=O)NN=CC(=O)c1ccc(C(=O)C=NNC(N)=O)c([N+](=O)[O-])c1` the value was 241 °C. For `O=C(O)Cc1c[nH]c2ccc(Br)cc12` the value was 141 to 148 °C; for `COc1ccc(C2(C#N)CCCCC2)cc1`, 43 °C; for `CC(C)NC(=O)CC#N`, 62 to 65 °C. With `Nc1noc2ccccc12` the figure was 110 to 112 °C; with `Clc1ccc(-c2cc3ccccc3[nH]2)cc1`, 206 °C.

For the compound `O=C(Nc1c(Cl)cccc1Cl)C(C(F)(F)F)C(F)(F)F`, the melting point came to 196 °C. For `CC(C)CCC#N` the value was -51 °C. As for `Nc1cc(N)cc(C(F)(F)F)c1`, the melting point was in the range of 88 to 89 °C.

Regarding `Cn1c(CO)cc2sccc21`, the melting point is 103 to 104 °C. In the case of `CC(=O)Nc1nn(C(C)=O)c2ncccc12`, the melting point lay in the range of 217 to 219 °C.

In the case of `c1cc2c3c(cccc3c1)C1=NCCN=C12`, the melting point amounted to 95 °C. With `CC(=O)c1c(O)cccc1OCCC(C)C` the figure was 25 to 27 °C; with `Cc1ccc(OCCBr)cc1`, 37 to 38 °C; with `O=C(O)Cc1ccc(C(=O)CCl)s1`, 101 to 104 °C. For `CCCC(c1ccccc1)c1ccccc1` the value was 27 °C; for `O=C=Nc1cccc2ccccc12`, 4 °C. Compound `O=C(c1ccccc1)c1cc2c(cc1Br)OCCCO2` yielded a melting point of 105 to 107 °C. For `NC(=O)C1c2ccccc2CCc2ccccc21` the value was 194 °C. `COC[C@H]1CCCN1C(=S)SCC(=O)c1ccc(Br)cc1` came in with a melting point of 89.5 °C. The compound `CCOC(=O)c1ccc(N2C(=O)CCC2=O)cc1` came in with a melting point of 158 to 160 °C. For `CN(N=Cc1ccc(Br)cc1)P(=O)(N1CC1)N1CC1` the value was 118 °C; for `CCOC1C(=O)NC2=C(C1=O)C(c1ccc(Br)cc1)c1c(c3ccccc3oc1=O)O2` (stereo not given), 196 °C; for `NS(=O)(=O)c1ccc(SCCO)cc1`, 112 °C.

Take `CCOC(=O)/C=C/c1ccc2ccc(=O)[nH]c2c1`: the melting point was 209 to 210 °C. `c1ccc(N=Nc2ccc(/N=N/c3ccc(N=Nc4ccccc4)cc3)cc2)cc1` returned a melting point of 233 °C. For `Nc1cccc(C(c2cccc(N)c2)(C(F)(F)F)C(F)(F)F)c1` the value was 86 °C; for `CCCCCCOC(=O)CCC`, -78 °C. `O=C(CS(=O)C(c1ccccc1)c1ccccc1)NO` (stereo not given) showed a melting point of 159 °C. For `O=C(Cl)c1ccc(-c2ccco2)cc1`, the melting point lay within 101 to 103 °C.

The compound `CP(=O)(c1ccccc1)c1ccccc1` showed a melting point of 113 °C. `Nc1c2c(nc3ccccc13)CCCC2` gave a melting point of 184 °C.

In turn, `Cc1nc(-c2ccc(S(=O)(=O)Cl)s2)cs1` registered a melting point of 88 to 90 °C. With `CC12CCC(=O)C(O)=C1CCC1C2CCC2(C)C1CCC2(C)O` (stereo not given) the figure was 170 °C. `CCCC(=O)Oc1c[nH]c2cc(Cl)ccc12`: the melting point was 98 to 102 °C. With `Cc1cc(C(=O)O)c(C)o1` the figure was 135 to 139 °C. With `CN1CCCN(c2ccc(C#N)cc2)CC1` the figure was 93 to 94 °C. With `O=C(c1ccccc1)N(O)c1ccccc1` the figure was 119 to 123 °C; with `CC12CCc3c(ccc4cc(O)ccc34)C1(C)CCC2=O` (stereo not given), 261 °C. The compound `c1ccc2cc3c(ccc4cc5ccccc5cc43)cc2c1` registered a melting point of 257 °C. On to `CCOC(=O)C(=O)CC(C)=O`, for which the melting point fell in the range of 16 to 18 °C. For `O=C(Nc1ccccc1NC(=O)c1ccccc1)c1ccccc1` the value was 301 to 302 °C; for `O=C(O)C1(C(=O)O)CCC1`, 157 to 161 °C; for `CC1OC(OC2C(Oc3cc(O)c4c(c3)OC(c3ccc(O)cc3)CC4=O)OC(CO)C(O)C2O)C(O)C(O)C1O` (stereo not given), 166 °C. `CC1=NN(c2ccccc2)C(=O)C1C(c1ccc(O)cc1)C1C(=O)N(c2ccccc2)N=C1C` (stereo not given): the melting point turned out to be 241 °C. For `Nc1c(Br)cc(Br)cc1C(F)(F)F` the value was 42 °C; for `O=C(O)c1ccc(O)c(O)c1`, 201 °C. With `Nc1cc(CCNC(=O)c2ccccc2)ccc1CCNC(=O)c1ccccc1` the figure was 210 °C. With `O=c1ccc2ccc(O)c(O)c2o1` the figure was 262 °C; with `ClC1=C(Cl)C(Cl)(Cl)C(Cl)=C1Cl`, -9 °C. Compound `Nc1ccc(Br)cc1N` gave a melting point of 62 to 64 °C. For `O=Cc1ccc(Cl)c(F)c1` the value was 47 °C; for `Nc1cccc2cc3ccccc3nc12`, 108 °C.

`CC(=O)c1cccc(Cl)c1O`: the melting point was 80 to 83 °C. Regarding `O=C(O)Cc1noc2ccccc12`, the melting point was in the range of 123 to 125 °C. The compound `CN(C)C(=O)OC1=CC(=O)CC(C)(C)C1` registered a melting point of 45.5 °C. With `COc1cc(/C=C/c2ccc([N+](=O)[O-])cc2[N+](=O)[O-])ccc1O` the figure was 191 °C; with `Cc1n[nH]c(C)c1C(C)(C)C`, 104 °C. For `CC(Cc1ccccc1)c1ccccc1` (stereo not given) the value was 52 °C; for `O=C1NC(=O)C(=NNc2ccccc2)C(=O)N1`, 309 to 310 °C. `CCCN(CCC)c1c([N+](=O)[O-])cc(S(N)(=O)=O)cc1[N+](=O)[O-]` had a melting point of 141 °C. With `CS(=O)(=O)Nc1ccccc1` the figure was 93 to 97 °C; with `O=C(O)c1cnccc1Cl`, 200 to 215 °C. Turning to `Cc1ccc(/N=N/C2C(=O)NN(c3ccccc3)C2=O)cc1` (stereo not given), the melting point is 247 °C. For the compound `CCn1c2c(c3cc(OC)ccc31)CCc1cc(OC)ccc1-2`, the melting point fell in the range of 145 to 147 °C. Take `CCOC(=O)c1c(C)oc(NC(=O)Nc2ccc(Cl)cc2)c1C(=O)OCC`: the melting point was 169 to 170 °C. For `c1ccc(C2Nc3ccccc3C2c2ccccc2)cc1` (stereo not given) the value was 173 °C; for `O=C(O)C1Cc2ccccc2O1` (stereo not given), 117 to 118 °C. For `Cc1nc(COc2ccc(C(N)=NO)cc2)cs1` the value was 193 to 194 °C; for `Cc1c(C)n(C(=O)c2ccccc2)c2ccccc12`, 98 °C.

Take `Cn1c(=O)c(C2=NNC(=O)C2=NNc2ccc(Cl)cc2)c(O)c2ccccc21`: the melting point was 240 °C. `CCS(=O)CCSP(=O)(OC)OC` (stereo not given): the melting point was -49 °C. `CC(C)(C)c1csc(-c2ccc(C=O)cc2)n1`: the melting point fell in the range of 106 to 107 °C. With `CSc1nc(N)c(C(=O)c2ccccc2)s1` the figure was 126 to 127 °C. `Cc1cc(C)c(N)c(C(=O)O)c1`: the melting point was determined as 192 °C. For `CC1(C)OCC(CO)O1` (stereo not given) the value was -27 °C; for `CCOC(=O)c1c(SC)nn2c(=O)n(Nc3ccccc3)cnc12`, 118 to 122 °C; for `CC(C)P(c1ccccc1)c1ccccc1`, 40 °C. For the compound `O=C(C1=NOC2C(=O)N(c3ccc(Br)cc3)C(=O)C12)c1ccc2ccccc2c1` (stereo not given), the melting point was found to be 186 °C. Take `COc1c(OC)c(OC(C)=O)c2cc(F)ccc2c1OC(C)=O`: the melting point was 102 °C. With `COc1ccc(OC)c(C=CC(=O)O)c1` the figure was 147 to 150 °C. With `COC(=O)C1=C(C)NC(C)=C(C(=O)OC)C1c1cccc(OC)c1O` the figure was 191 °C; with `CCC1(c2ccccc2)C(=O)NC(=O)N(C)C1=O` (stereo not given), 176 °C; with `O=C(CC(c1ccccc1)c1ccccc1)c1ccccc1`, 96 °C. In the case of `Cc1oc(-c2ccccc2)nc1CCO`, the melting point was in the range of 72 to 75 °C. For `CCCN(CCC)c1c([N+](=O)[O-])cc(S(C)(=O)=O)cc1[N+](=O)[O-]`, the melting point came to 150 °C. For `CC(=O)c1ccc(-c2ccc(C(C)=O)cc2)cc1` the value was 192 to 196 °C; for `CC(C)(C)OC(=O)NCc1ccc(Br)s1`, 51 to 54 °C; for `O=C(c1ccc2c3c(cccc13)CC2)C(Br)c1ccccc1` (stereo not given), 118 °C.
